What all share (experiment): growth of human tumour cells (NCI), 48 h
Assay [1] has as its system NCI-H460.
The test system of assay [2] is SF-539.
Assay [3] concerns HT-29.
The test system of assay [4] is MOLT-4.
Assay [5] deals with NCI-H226.
Assay [6] relates to A549.
Assay [7] deals with HOP-62.
Assay [8] relates to SN12C.
Assay [9] deals with T47D.
For assay [10], the system named is SW-620.
The test system of assay [11] is HOP-92.
Assay [12] has as its system ACHN.
In assay [13] the test system is PC-3.
Assay [14] concerns MDA-MB-231.
The test system of assay [15] is COLO 205.
Assay [16] concerns HCC 2998.
Assay [17] deals with CAKI-1.
Assay [18] has as its system NCI/ADR-RES.

The structures appear in SMILES notation.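 Compound exposure: 48 hours, 5 concentrations, 96-well plates. Here, GI50 denotes the concentration required for 50% inhibition of growth.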 Activity calls are given as the source filed them. Rule as the data show it: active = GI50 up to about 1.1 µM and inactive = higher.

For `Cc1nnc2n(c1=O)CCCN2C`, the GI50 in [1], in assay [2], in [3], in assay [4], in assay [5] and in assay [6] was > 100 µM (inactive) each time. In addition, the GI50 in assay [7], in assay [8], in [9], in assay [10], in assay [11] and in assay [12] was > 100 µM (inactive) in each case. Further, the GI50 in assay [13], in assay [14], in assay [15] and in assay [16] was > 100 µM (inactive) throughout.

For `CCN(CC)CCC1CCCCN1CC(=O)N1c2ccccc2NC(=O)CC1C` (stereo unspecified), the GI50 in assay [1], in [2], in assay [3], in assay [4], in [5] and in [17] was > 100 µM (inactive) each time. Moreover, the GI50 in [6], in assay [7], in [8], in assay [9], in assay [11] and in assay [12] was > 100 µM (inactive) in each case. Further, the GI50 in assay [13], in assay [14], in assay [15] and in assay [16] was > 100 µM (inactive) each time.

For the compound `Nc1nc(Cl)c(CO)c(NCC2(CO)CC(CCc3ccccc3)C2)n1` (stereo unspecified), the GI50 is 13.1 µM (inactive) in [1]; 21.9 µM (inactive) in [2]; 22.2 µM (inactive) in assay [3]; 2.1 µM (inactive) in assay [4]; 13.3 µM (inactive) in assay [5]; 37.8 µM (inactive) in assay [17]. Besides, the GI50 was 18.6 µM (inactive) in assay [6]; 25.4 µM (inactive) in assay [7]; 31.1 µM (inactive) in assay [8]; 19.6 µM (inactive) in assay [10]; 24.3 µM (inactive) in assay [11]; 24.4 µM (inactive) in [12]. Also, the GI50 in assay [18] is 11.5 µM (inactive); in assay [13], 51.3 µM (inactive); in assay [14], 12.5 µM (inactive); in assay [15] it was 14.5 µM (inactive); in assay [16], 33.3 µM (inactive).

For `[N-]=[N+]=NCN1C(=O)C2C3C=CC(C2C1=O)C1C2C(=O)N(CN=[N+]=[N-])C(=O)C2C31` (stereo unspecified), the GI50 in assay [1], in assay [2], in [3], in assay [17], in assay [6] and in assay [7] was > 100 µM (inactive) in each case. The GI50 is > 100 µM (inactive) in assay [8]; > 100 µM (inactive) in assay [9]; > 100 µM (inactive) in [10]; 12.5 µM (inactive) in assay [11]; > 100 µM (inactive) in assay [12]; > 100 µM (inactive) in assay [18]. Moreover, the GI50 in assay [13] was > 100 µM (inactive); in assay [15], > 100 µM (inactive); in assay [16] it was 11.7 µM (inactive).

Regarding `O=S(=O)(c1cc(Cl)ccc1Cl)N1CCN(c2ccc(Cl)c(Cl)c2)CC1`, the GI50 in assay [1] is > 10 µM (inactive); in assay [2], 25.2 µM (inactive); in [3], 88.1 µM (inactive); in assay [4], > 100 µM (inactive); in assay [5] it was 21.7 µM (inactive); in [17], 22 µM (inactive). Further, the GI50 was 35.7 µM (inactive) in assay [6]; 18.2 µM (inactive) in assay [7]; 78.5 µM (inactive) in assay [8]; 20.4 µM (inactive) in [9]; > 100 µM (inactive) in [10]; 18 µM (inactive) in [11]. Further, the GI50 was 37 µM (inactive) in [12], 99.8 µM (inactive) in [13], > 100 µM (inactive) in assay [14] and 62.1 µM (inactive) in [16].

Regarding `Nc1nc(N)c2nc(CN(C=O)c3ccc(C(=O)O)cc3)cnc2n1`, the GI50 was 7.55 µM (inactive) in assay [1]; 8.26 µM (inactive) in [2]; > 100 µM (inactive) in assay [3]; 4.81 µM (inactive) in assay [4]; > 100 µM (inactive) in assay [5]; > 28.2 µM (inactive) in assay [17]. For the same compound, the GI50 in assay [6] is 6.14 µM (inactive); in assay [7] it was 14 µM (inactive); in [8] it was 52.6 µM (inactive); in assay [9] it was > 100 µM (inactive); in assay [10], 17 µM (inactive); in assay [11], > 100 µM (inactive). Also, the GI50 in assay [12] is 3.94 µM (inactive); in assay [13] it was 0.668 µM (active); in assay [14] it was > 100 µM (inactive); in assay [15], > 100 µM (inactive); in assay [16], > 100 µM (inactive).

As for `COC(=O)C1C(C(=O)OC)C2(OC(c3ccc(Cl)cc3)=CC2=O)C12OC(c1ccc(Cl)cc1)=CC2=O` (stereo unspecified), the GI50 in [1] is 19.8 µM (inactive); in assay [2] it was 18.3 µM (inactive); in assay [3], 16.7 µM (inactive); in [4], 4.45 µM (inactive); in assay [5], 28.4 µM (inactive); in assay [17], 22 µM (inactive). The GI50 in assay [6] is 34.1 µM (inactive); in assay [7], > 10 µM (inactive); in [8], 20.5 µM (inactive); in [9], 14.8 µM (inactive); in assay [10], 32.7 µM (inactive); in [11], 18.6 µM (inactive). In addition, the GI50 is 19.9 µM (inactive) in assay [12]; 21.8 µM (inactive) in assay [13]; 26.4 µM (inactive) in [14]; 16.7 µM (inactive) in assay [15]; 18.3 µM (inactive) in [16].

On to `COc1cc(C(=O)OCCn2[nH]c(-c3ccc(Cl)cc3)nc2=S)cc(OC)c1OC`, for which the GI50 in assay [1] was > 100 µM (inactive); in assay [2], 60.8 µM (inactive); in assay [3] it was > 100 µM (inactive); in assay [4], 22.9 µM (inactive); in assay [5], 58.7 µM (inactive); in [17], 37.7 µM (inactive). In addition, the GI50 was 98.6 µM (inactive) in assay [6]; > 100 µM (inactive) in assay [7]; 91.8 µM (inactive) in assay [8]; > 100 µM (inactive) in assay [10]; 27.5 µM (inactive) in [11]; > 100 µM (inactive) in assay [12]. For the same compound, the GI50 is 57 µM (inactive) in assay [18]; > 100 µM (inactive) in assay [13]; > 100 µM (inactive) in assay [14]; > 100 µM (inactive) in assay [15]; 56.4 µM (inactive) in [16].

Take `COc1ccc(CN=C(N)N)c2ccccc12`: the GI50 was 19.2 µM (inactive) in assay [2]; 15.8 µM (inactive) in assay [3]; 48.3 µM (inactive) in [4]; 27.4 µM (inactive) in [5]; 20.7 µM (inactive) in assay [17]; 43.1 µM (inactive) in [6]. The GI50 was 0.78 µM (active) in assay [7]; 14.9 µM (inactive) in assay [8]; 31.9 µM (inactive) in [9]; 41.2 µM (inactive) in [10]; 35.6 µM (inactive) in assay [12]; > 100 µM (inactive) in [18]. Also, the GI50 was 17.7 µM (inactive) in assay [13] and 15.8 µM (inactive) in [15].

Consider `CC(=O)O[C@H]1C(=O)[C@@]2(C)[C@H]([C@H](OC(=O)c3ccccc3)[C@]3(O)C[C@H](OC(=O)[C@H](O)[C@@H](NC(=O)C(C)(C)C)c4ccccc4)C(C)=C1C3(C)C)[C@]1(OC(C)=O)CO[C@@H]1C[C@@H]2O`, for which the GI50 in assay [1] is 0.0955 µM (active); in assay [2] it was 0.0585 µM (active); in assay [3] it was 0.0414 µM (active); in [4] it was 0.0454 µM (active); in [5] it was 0.428 µM (active); in [17], 1.56 µM (inactive). Further, the GI50 in [6] was 0.0809 µM (active); in assay [7], 0.215 µM (active); in [8], 0.0807 µM (active); in [10], 0.0459 µM (active); in assay [11] it was 0.535 µM (active); in assay [12], 3.32 µM (inactive). Besides, the GI50 in assay [18] was > 10 µM (inactive); in [13], 0.0565 µM (active); in [14], 5.93 µM (inactive); in assay [15], 0.0444 µM (active); in assay [16], 0.0702 µM (active).

As to `CC(=O)CC(=O)Nn1c(-c2cccs2)nc2ccc(I)cc2c1=O`, the GI50 in [1] was > 56.1 µM (inactive); in assay [3], > 100 µM (inactive); in [4] it was > 70.1 µM (inactive); in [5] it was > 42.3 µM (inactive); in assay [17] it was > 47.3 µM (inactive); in assay [6] it was > 64.3 µM (inactive). In addition, the GI50 is > 66.4 µM (inactive) in assay [7]; > 49.8 µM (inactive) in assay [8]; > 62.1 µM (inactive) in assay [9]; > 52.7 µM (inactive) in assay [10]; > 50.1 µM (inactive) in [11]; > 57 µM (inactive) in assay [12]. Moreover, the GI50 in [18] was > 46.5 µM (inactive); in [13], > 51.5 µM (inactive); in [15] it was > 51.4 µM (inactive); in assay [16] it was > 39.8 µM (inactive).

Turning to `CCOC(=O)NC(=O)c1cn(CCCOC(=O)CCCCCCCCCCC(=O)OCCCn2cc(C(=O)NC(=O)OCC)c(=O)[nH]c2=O)c(=O)[nH]c1=O`, the GI50 in assay [1], in [2], in assay [3], in assay [4], in assay [5] and in assay [6] was > 100 µM (inactive) in each case. In addition, the GI50 in [7], in [8], in assay [10], in assay [11], in [12] and in [15] was > 100 µM (inactive) in each case. For the same compound, in [16], the GI50 is > 100 µM (inactive).

The values above are taken from ChEMBL document CHEMBL1201862, “PubChem BioAssay data set” (2004).
